Results as given in patent US20250163036A1, “DIPEPTIDYL PEPTIDASE 1 INHIBITOR POLYMORPH, PREPARATION METHOD AND USE THEREFOR” (HAISCO PHARMACEUTICALS PTE. LTD., priority 2022, published 2025).

Columns and labels:
[1] = Pharmacokinetic test in rats; type: in vivo, SD rats; details: rat, intragastric administration 3 mg/kg
Experimental: 1.1 Experimental animals: male SD rats, about 220 g, 6-8 weeks old, 6 rats/compound. Purchased from Chengdu Ddossy Experimental Animals Co., Ltd.
1.2 Experimental design: on the day of the experiment, 6 SD rats were randomly grouped according to their body weights. The animals were fasted with water available for 12 to 14 h one day before the administration and were fed 4 h after the administration.
Vehicle for intravenous administration: 5% DMA+5% Solutol+90% Saline; vehicle for intragastric administration: 0.5% MC; control compound INS1007, namely compound 2 in patent WO 2015110826A1, was prepared with reference to the method of the patent.
Before and after the administration, 0.1 ml of blood was taken from the orbit of the animals under isoflurane anesthesia and placed in an EDTAK2 centrifuge tube. The blood was centrifuged at 5000 rpm and 4° C. for 10 min to collect the plasma. Blood sampling time points for the intravenous administration group: 0, 5 min, 15 min, 30 min, 1 h, 2 h, 4 h, 6 h, 8 h, and 24 h; and blood sampling time points for the intragastric administration group: 0, 5 min, 15 min, 30 min, 1 h, 2 h, 4 h, 6 h, 8 h, and 24 h. Before analysis and detection, all samples were stored at −80° C.

[2] = Stability, accelerated experiment; type: physicochemical; details: 40° C.±2° C., 75% RH±5% RH
Experimental: (§1) The compounds used in this experiment were obtained from Example 4. Examination conditions: 40° C.±2° C., 75% RH±5% RH. Packaging: the inner packaging material is a double-layer medicinal low-density polyethylene bag, and the outer packaging material is a polyester/aluminum/polyethylene medicinal composite bag. In particular, the analysis method of purity is as follows: [table]

[3] = Stability, long-term experiment 2; type: physicochemical; details: 30° C.±2° C., 65% RH±5% RH
Experimental: as §1, with “30°” for “40°”, “65%” for “75%”

[4] = Stability, long-term experiment 1; type: physicochemical; details: 25° C.±2° C., 60% RH±5% RH
Experimental: as §1, with “25°” for “40°”, “60%” for “75%”

[5] = Hygroscopicity by dynamic vapor sorption (DVS); type: physicochemical; details: 25° C./80% RH
Experimental: The hygroscopicity of the crystal forms B and C was evaluated by a dynamic vapor sorption (DVS) instrument. The test collected the percentage change in the mass of the samples when the humidity changed (60% RH-95% RH-0% RH-95% RH or 0% RH-95% RH-0% RH) at a constant temperature of 25° C., wherein for the crystal form C, the test started at ambient humidity (about 60% RH), and for the crystal form B, the test started at 0% relative humidity (0% RH). The test results are shown in FIGS. 12 and 13, respectively.

[6] = Stability, long-term experiment 3; type: physicochemical; details: 2° C.-8° C.
Experimental: as §1, with “2° C.-8° C.” for “40° C.±2° C., 75% RH±5% RH.”

[7] = Variable-temperature / heating XRPD test; type: physicochemical
Experimental: (initial temperature). […] In order to study the TGA weight loss of the crystal form B, a variable-temperature XRPD test was performed. […] (some diffraction peaks shifted at 120° C., and it is speculated that the shift may be caused by lattice expansion at high temperature). Therefore, it is speculated that the free base crystal form B is an anhydrous crystal form.
(peak temperatures). The sample was heated to 120° C. and cooled to room temperature, and then an XRPD test was performed. […] Based on the fact of crystal transformation of the sample upon heating in combination with the stepwise weight loss of the TGA, it is speculated that the crystal form C is a monohydrate.

[8] = Solid stability without protection (XRPD, UPLC); type: physicochemical
Experimental: For the compounds used in this experiment, the crystal form B was obtained from Example 3, and the crystal form C was obtained from Example 5
The crystal forms B and C were placed at 25° C./60% RH and 40° C./75% RH without any protection, and then the physical and chemical stabilities thereof were tested by XRPD and UPLC, respectively.

With Cn1c(=O)oc2ccc(-c3ccc(C[C@@H](C#N)NC(=O)[C@@H]4CNCCCO4)c(F)c3)cc21 [Compound I, (S)—N—((S)-1-cyano-2-(2-fluoro-4-(3-methyl-2-oxo-2,3-dihydrobenzo[d]oxazol-5-yl)phenyl)ethyl)-1,4-oxazepane-2-carboxamide] the F [1] was over 100%.
With Cn1c(=O)oc2ccc(-c3ccc(C[C@@H](C#N)NC(=O)[C@@H]4CNCCCO4)c(F)c3)cc21 [Crystal form B] the Content ([2]; month 0) was 100.5%, the Crystal form ([2]; month 0) was “form B” and the Moisture ([2]; month 0) was 0.2%. The Purity ([2]; month 0) was 99.93%, the Content ([2]; month 1) was 100.4% and the Crystal form ([2]; month 1) was “form B”. It also gave a Moisture ([2]; month 1) of 0.3%, a Purity ([2]; month 1) of 99.87% and a Content ([2]; month 2) of 101.1%. The Crystal form ([2]; month 2) was “form B”, the Moisture ([2]; month 2) was 0.2% and the Purity ([2]; month 2) was 99.88%. For the same compound, the Content ([2]; month 3) was 100.1%, the Crystal form ([2]; month 3) was “form B” and the Moisture ([2]; month 3) was 0.2%. For the same compound, the Purity ([2]; month 3) was 99.87%, the Content ([2]; month 6) was 101.3% and the Crystal form ([2]; month 6) was “form B”. For the same compound, the Moisture ([2]; month 6) was 0.2%, the Purity ([2]; month 6) was 99.88% and the Content ([3]; month 0) was 100.5%. For the same compound, the Crystal form ([3]; month 0) was “form B”, the Moisture ([3]; month 0) was 0.2% and the Purity ([3]; month 0) was 99.93%. For the same compound, the Content ([3]; month 3) was 100.6%, the Crystal form ([3]; month 3) was “form B” and the Moisture ([3]; month 3) was 0.3%. The Purity ([3]; month 3) was 99.87%, the Content ([3]; month 6) was 101.6% and the Crystal form ([3]; month 6) was “form B”. It also gave a Moisture ([3]; month 6) of 0.2%, a Purity ([3]; month 6) of 99.90% and a Content ([3]; month 9) of 100.7%. The Crystal form ([3]; month 9) was “form B”, the Moisture ([3]; month 9) was 0.1% and the Purity ([3]; month 9) was 99.90%. For the same compound, the Content ([3]; month 12) was 99.2%, the Crystal form ([3]; month 12) was “form B” and the Moisture ([3]; month 12) was 0.2%. The Purity ([3]; month 12) was 99.89%, the Content ([4]; month 0) was 100.5% and the Crystal form ([4]; month 0) was “form B”. The Moisture ([4]; month 0) was 0.2%, the Purity ([4]; month 0) was 99.93% and the Content ([4]; month 3) was 100.6%. For the same compound, the Crystal form ([4]; month 3) was “form B”, the Moisture ([4]; month 3) was 0.3% and the Purity ([4]; month 3) was 99.87%. For the same compound, the Content ([4]; month 6) was 100.7%, the Crystal form ([4]; month 6) was “form B” and the Moisture ([4]; month 6) was 0.2%. The Purity ([4]; month 6) was 99.90%, the Content ([4]; month 9) was 101.6% and the Crystal form ([4]; month 9) was “form B”. It also gave a Moisture ([4]; month 9) of 0.1%, a Purity ([4]; month 9) of 99.89% and a Content ([4]; month 12) of 99.5%. The Crystal form ([4]; month 12) was “form B”, the Moisture ([4]; month 12) was 0.2% and the Purity ([4]; month 12) was 99.88%. For the same compound, the Moisture sorption [5] was 0.19%, the Content ([6]; month 0) was 100.5% and the Crystal form ([6]; month 0) was “form B”. The Moisture ([6]; month 0) was 0.2%, the Purity ([6]; month 0) was 99.93% and the Content ([6]; month 3) was 100.5%. For the same compound, the Crystal form ([6]; month 3) was “form B”, the Moisture ([6]; month 3) was 0.3% and the Purity ([6]; month 3) was 99.87%. The Content ([6]; month 6) was 100.0%, the Crystal form ([6]; month 6) was “form B” and the Moisture ([6]; month 6) was 0.3%. The Purity ([6]; month 6) was 99.89%, the Content ([6]; month 9) was 101.6% and the Crystal form ([6]; month 9) was “form B”. It also gave a Moisture ([6]; month 9) of 0.2%, a Purity ([6]; month 9) of 99.89% and a Content ([6]; month 12) of 101.0%. The Crystal form ([6]; month 12) was “form B”, the Moisture ([6]; month 12) was 0.2% and the Purity ([6]; month 12) was 99.89%. The “Crystal form change in variable-temperature XRPD” value ([7]; purged with nitrogen for 20 minutes, heated to 120° C., or cooled to 30° C.) was “did not change”, the Crystal form change ([8]; 25° C./60% RH, 1 month) was “No” and the Purity ([8]; 25° C./60% RH, 1 month) was 99.76. For the same compound, the Crystal form change ([8]; 25° C./60% RH, 1 week) was “No”, the Purity ([8]; 25° C./60% RH, 1 week) was 99.74 and the Purity ([8]; 25° C./60% RH, 3 weeks) was 99.74. The Crystal form change ([8]; 40° C./75% RH, 1 month) was “No”, the Purity ([8]; 40° C./75% RH, 1 month) was 99.63 and the Crystal form change ([8]; 40° C./75% RH, 1 week) was “No”. The Purity ([8]; 40° C./75% RH, 1 week) was 99.65, the Purity ([8]; 40° C./75% RH, 3 weeks) was 99.57 and the Purity ([8]; initial value) was 99.86.
With Cn1c(=O)oc2ccc(-c3ccc(C[C@@H](C#N)NC(=O)[C@@H]4CNCCCO4)c(F)c3)cc21 [Crystal form C] the Moisture sorption [5] was 0.97%, the “Crystal form change upon heating (XRPD)” value ([7]; heated to 120° C. and cooled to room temperature) was “transformed into the crystal form B” and the Crystal form change ([8]; 25° C./60% RH, 1 week) was “No”. For the same compound, the Purity ([8]; 25° C./60% RH, 1 week) was 99.70, the Crystal form change ([8]; 40° C./75% RH, 1 week) was “No” and the Purity ([8]; 40° C./75% RH, 1 week) was 99.71. The Purity ([8]; initial value) was 99.87.
Compound Cn1c(=O)oc2ccc(-c3ccc(C[C@@H](C#N)NC(=O)[C@@H]4CNCCCO4)cc3)cc21 [INS1007, reference compound] has an F [1] of 88.1%.
